Values quoted from earlier work as cited in paper PMC4860896 (Theranostics, 2016).

**Q.** With `OCC1[C@H]2CC/C=C/CC[C@@H]12` (stereo partly drawn) [compound 4, (1R,8S,E)-bicyclo[6.1.0]non-4-en-9-ylmethanol] as the compound, how does the “rate constant of reaction of sTCO with diphenyl-s-tetrazine derivatives” value (at 25 °C in water, prior study) read?
**A.** The value was “up to 2.86 x 10^5 M^-1s^-1”.

**Q.** What about the “rate constant of tetrazine ligation, fastest measured” value (room temperature conjugations in water, listed as sTCO) of the same compound?
**A.** Its value is no more than 3.3e+06 M⁻¹ s⁻¹.
